Experimental data taken from patent US20240092800A1, “USP13 INHIBITORS AND METHODS OF USE THEREOF” (GEORGETOWN UNIVERSITY, priority 2021, published 2024).

Assays:
[1] = tested on: tyrosine hydroxylase (TH); assay: Tyrosine hydroxylase staining in striatum of TgA53T mice; type: in vivo, mouse; settings: 40 mg/Kg I.P. daily for 7 days, vs DMSO
Experimental: Immunohistology. Animals were deeply anesthetized with a mixture of xylazine and ketamine (1:8), washed with normal saline for 1 min and then perfused with 4% paraformaldehyde (PFA) for 15-20 min. Brains were quickly dissected out and immediately stored in 4% PFA for 24 h at 4° C. and then transferred to 30% sucrose at 4° C. for 48 h. Brains were cut using a cryostat microtome into 20 μm thick coronal sections and stored at −20° C.
Immunohistochemistry was performed on the 20 μm thick brain sections for evaluation of ubiquitination of alpha-synuclein. The antibodies used were human alpha-synuclein monoclonal antibody (Thermo Fisher, AHB0261, Rockford, IL, USA) and ubiquitin polyclonal antibody (Thermo Fisher, PA3-16717, Rockford, IL, USA). The optic densitometry of co-localization of ubiquitin with alpha-synuclein was measured using Image J. Tyrosine hydroxylase (TH) is the limiting enzyme in DA synthesis, so probing for TH+ neurons will help to evaluate the status of DA producing neurons in the SN and their terminals in the striatum. We performed fluorescent staining of TH+ in striatum and conducted optic densitometry measurement of striatal DA terminals. Nuclear staining with 4,6-diamidino-2-phenylindole was performed according to manufacturer's protocols (Life Technologies, Rockford, IL, USA).

human USP13 = molecular target: T1, human USP13 (Homo sapiens, UniProt Q92995); assay: USP13 activity via ELISA in SHSY5Y cells; type: cell-based
T1 construct: USP13 activity via ELISA in human SHSY5Y neuroblastoma cells; endogenous in cells; host or cells: human SH-SY5Y neuroblastoma cells (transiently transfected with human wild-type alpha-synuclein, not with USP13)
T1 sequence (Q92995 1-863): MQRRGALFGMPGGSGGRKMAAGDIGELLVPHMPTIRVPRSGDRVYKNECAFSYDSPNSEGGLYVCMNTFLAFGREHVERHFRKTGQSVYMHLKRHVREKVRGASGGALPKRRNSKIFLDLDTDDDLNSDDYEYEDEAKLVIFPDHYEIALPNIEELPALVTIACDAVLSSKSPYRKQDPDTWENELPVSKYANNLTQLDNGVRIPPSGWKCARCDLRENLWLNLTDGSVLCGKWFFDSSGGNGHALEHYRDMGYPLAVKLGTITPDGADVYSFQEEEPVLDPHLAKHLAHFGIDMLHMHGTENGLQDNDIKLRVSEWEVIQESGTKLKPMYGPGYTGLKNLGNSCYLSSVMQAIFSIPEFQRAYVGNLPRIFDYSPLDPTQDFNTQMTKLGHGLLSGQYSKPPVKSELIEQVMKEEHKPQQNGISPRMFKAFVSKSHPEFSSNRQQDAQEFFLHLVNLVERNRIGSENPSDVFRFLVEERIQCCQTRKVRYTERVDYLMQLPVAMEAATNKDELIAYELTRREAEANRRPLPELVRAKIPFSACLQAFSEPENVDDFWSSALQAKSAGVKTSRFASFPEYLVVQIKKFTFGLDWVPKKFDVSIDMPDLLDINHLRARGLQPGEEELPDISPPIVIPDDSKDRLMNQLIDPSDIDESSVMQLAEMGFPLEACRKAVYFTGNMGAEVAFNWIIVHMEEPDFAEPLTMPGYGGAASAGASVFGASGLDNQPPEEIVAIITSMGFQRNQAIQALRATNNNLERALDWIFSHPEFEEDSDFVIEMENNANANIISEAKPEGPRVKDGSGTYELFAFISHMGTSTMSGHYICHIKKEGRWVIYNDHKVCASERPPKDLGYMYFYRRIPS
Experimental: Cell lines, transfection, and treatment.
A total of 25 μL soluble protein was incubated overnight at 4° C. with 25 μL of a mixed bead solution. After washing, samples were incubated with 25 μL detection antibody solution for 1.5 hours at room temperature. Streptavidin-phycoerythrin (25 μL) was added to each well containing the 25 μL of detection antibody solution. Samples were then washed and suspended in 100 μL of sheath fluid. Samples were then run on MAGPIX with Xponent software. The median fluorescent intensity (MFI) data were analyzed using a 5-parameter logistic or spline curve-fitting method for calculating analyte concentrations in samples. Specific alpha-synuclein ELISAs were performed on tissue soluble extracts from midbrain lysates in 1XSTEN buffer. The ELISA for USP13 (MyBioSource, Cat # MBS9335287), Human alpha-synuclein (Biolegend, Cat #844101) and specific p-Tau ser396 (Invitrogen, KHB7031) were performed on cell or brain tissue extracts as described above according to manufacturers' protocol.
Statistical and Data Analysis. All statistical analyses were performed using GraphPad Prism version 5.0 (GraphPad software, Inc, San Diego, CA, USA). Two-tailed student's t-test was used in comparison of means of two groups. Ordinary one-way analysis of variance (ANOVA) followed by Newman-Keuls or Dunnett comparison post hoc tests were used in comparison of means of multiple groups. Asterisks denote actual p-value significances (*<0.05, **<0.01, ***<0.001 and ****<0.0001), and N is the number of animals or the number of independent experiments (cell culture) per group. Unless otherwise indicated, data are expressed as Mean±SD. IC50 to USP13 levels was also estimated using GraphPad Prism version 5.0 (GraphPad software, Inc, San Diego, CA, USA).

human alpha-synuclein = assay: Alpha-synuclein levels in TgA53T mice (WB, ELISA, DAB staining); type: in vivo, mouse; settings: 10 mg/kg or 40 mg/kg I.P. daily for 7 days, vs DMSO
[2] = tested on: alpha-synuclein ubiquitination; assay: Alpha-synuclein ubiquitination in TgA53T mice (IP/WB, immunostaining co-localization); type: in vivo, mouse; settings: midbrain extracts, 40 mg/kg compared to DMSO and 10 mg/kg
Experimental: Immunoprecipitation (IP). Mouse brain tissues were homogenized in 1×STEN buffer, and the soluble fraction was isolated as indicated above. The lysates were pre-cleaned with immobilized recombinant protein A/G agarose (Santa Crutz, sc-2003, Dallas, TX, USA) and centrifuged at 2500×g for 1 min at 4° C. The supernatant was recovered and quantified by protein assay, and a total of 300 μg protein was incubated overnight at 4° C. with primary anti-alpha-synuclein (1:200, Thermofisher, AHB0261) mouse antibodies or anti-ubiquitin (1:100) (Thermo Fisher, PA3-16717, Rockford, IL, USA) antibodies in the presence of sepharose G and an IgG control with primary antibodies. The immunoprecipitates were collected by centrifugation at 2500×g for 3 min at 4° C., washed 5× in PBS, with spins of 3 min, 2500×g using detergent-free buffer for the last washing step, and the proteins were eluted according to Pierce instructions (Pierce #20365, Rockford, IL, USA). […]
Immunohistochemistry was performed on the 20 μm thick brain sections for evaluation of ubiquitination of alpha-synuclein. […] The optic densitometry of co-localization of ubiquitin with alpha-synuclein was measured using Image J. Tyrosine hydroxylase (TH) is the limiting enzyme in DA synthesis, so probing for TH+ neurons will help to evaluate the status of DA producing neurons in the SN and their terminals in the striatum. […]

Compound: Fc1ccc2nccc(OCc3ccccc3)c2c1 [4-(Benzyloxy)-6-fluoroquinoline]
- staining of tyrosine hydroxylase (TH) [1]: did not show any noticeable effects
- IC50 (human USP13; SHSY5Y cell line, estimated with GraphPad Prism, read-out: IC50 to inhibit USP13 activity): 78 nM
- USP13 activity via ELISA (human USP13; SHSY5Y cells, 5 hours, concentration range of 1 nM-1 mM): significantly reduce the activity of human USP13
- human alpha-synuclein in midbrain lysates by WB (human alpha-synuclein): significantly reduced
- alpha-synuclein ubiquitination by immunoprecipitation and WB [2]: increased ubiquitination
